# Test results reported in patent US20100056524A1, “Compound” (priority 2008, published 2010).
# Where two headings read alike, the source gives them in different places.
# Key:
# [1] = target: T1, Src (Homo sapiens, UniProt P12931); assay: Src protein kinase assay; format: biochemical; conditions: for remaining activity at 1 µM: 1 μM compound; for remaining activity at 10 µM: 10 μM compound; for residual kinase activity Src: 1 μm compound
# T1 construct: All protein kinases were of human origin and encoded full length proteins, unless indicated otherwise; made in house
# Source text: (§1) All protein kinases were of human origin and encoded full length proteins, unless indicated otherwise. They were either expressed as glutathione S-transferase (GST) fusion proteins in Escherichia Coli or as hexahistidine (His6)-tagged proteins in insect Sf21 cells. GST fusion proteins were purified by affinity chromatography on glutathione-Sepharose, and His6-tagged proteins on nickel/nitriloacetate-agarose. The procedures for expressing some of the protein kinases used herein have been detailed previously.^8,9 The following sections outline the DNA vectors synthesised and the procedures used to express and purifying protein kinases that have not been reported previously.
# (§2) All assays (25.5 μl) were carried out at room temperature (21° C.) and were linear with respect to time and enzyme concentration under the conditions used. Assays were performed for 30 min using Multidrop Micro reagent dispensers (Thermo Electron Corporation, Waltham, Mass. 02454, USA) in a 96-well format. The concentration of magnesium acetate in the assays was 10 mM and the [γ-33P] ATP (800 cpm/pmol) was used at 5, 20 or 50 μM as indicated, in order to be at or below the Km for ATP for each enzyme. Protein kinases assayed at 5 μM ATP were: —ERK1, ERK8, PKBα, MARK3, Aurora C. Protein kinases assayed at 20 μM ATP were: —JNK1, PDK1, CHK1, CHK2, CDK2 and Aurora B. Protein kinases assayed at 50 μM ATP were: —MNK2, IKKepsilon and TBK1.
# (§3) The assays were initiated with MgATP, stopped by addition of 5 μl of 0.5 M orthophosphoric acid and spotted on to P81 filterplates using a unifilter harvester (PerkinElmer, Boston, Mass. 02118, USA). The IC50 values of inhibitors were determined after carrying out assays at 10 different concentrations of each compound.
# (§4) Unless stated otherwise, enzymes were diluted in 50 mM Tris/HCl pH 7.5, 0.1 mM EGTA, 1 mg/ml BSA, 0.1% (v/v) 2-mercaptoethanol and assayed in 50 mM Tris/HCl pH 7.5, 0.1 mM EGTA, 0.1% (v/v) 2-mercaptoethanol.
# [2] = target: T2, MST4 (Homo sapiens, UniProt Q9P289); assay: MST4 protein kinase assay; format: biochemical; conditions: for remaining activity at 1 µM: 1 μM compound; for remaining activity at 10 µM: 10 μM compound; for residual kinase activity MST4: 1 μm compound
# T2 construct: All protein kinases were of human origin and encoded full length proteins, unless indicated otherwise; made in house
# Source text: as §1, §2, §3, §4
# [3] = target: T3, CSK (Homo sapiens, UniProt P41240); assay: CSK protein kinase assay; format: biochemical; conditions: for remaining activity at 1 µM: 1 μM compound; for remaining activity at 10 µM: 10 μM compound; for residual kinase activity CSK: 1 μm compound
# T3 construct: All protein kinases were of human origin and encoded full length proteins, unless indicated otherwise; made in house
# Source text: as §1, §2, §3, §4
# [4] = target: T4, JNK2 (Homo sapiens, UniProt P45984); assay: JNK2 protein kinase assay; format: biochemical; conditions: for remaining activity at 1 µM: 1 μM compound; for remaining activity at 10 µM: 10 μM compound; for residual kinase activity JNK2: 1 μm compound
# T4 construct: All protein kinases were of human origin and encoded full length proteins, unless indicated otherwise; made in house
# Source text: as §1
# In order to produce activated forms of Aurora B and Aurora C, insect Sf21 cells were incubated for 1 h with the protein phosphatase inhibitor okadaic acid (50 nM). JNK isoforms were activated with MKK4 and MKK7, MNK2 with p38α MAPkinase; PKBα, PKBβ, with PDK1, and ERK1 with MKK1. To activate CDK2, bacterial pellets expressing cyclin A2 and CDK2 were mixed together, lyse and purified on glutathione Sepharose. The GST-tags were removed by cleavage with PreScission protease and the CDK2-cyclin A2 complex purified by chromatography on SP-Sepharose. It was then activated with CAK1/CDK7 followed by chromatography on nickel-nitrilotriacetate agarose to remove CAK1/CDK7, which binds to this column by virtue of its C-terminal His6 tag. All the other protein kinases were active as expressed.
# as §2, §3, §4
# [5] = target: T5, BRSK2 (Homo sapiens, UniProt Q8IWQ3); assay: BRSK2 protein kinase assay; format: biochemical; conditions: for remaining activity at 1 µM: 1 μM compound; for remaining activity at 10 µM: 10 μM compound; for residual kinase activity BRSK2: 1 μm compound
# T5 construct: All protein kinases were of human origin and encoded full length proteins, unless indicated otherwise; made in house
# T5 sequence (Q8IWQ3 1-736): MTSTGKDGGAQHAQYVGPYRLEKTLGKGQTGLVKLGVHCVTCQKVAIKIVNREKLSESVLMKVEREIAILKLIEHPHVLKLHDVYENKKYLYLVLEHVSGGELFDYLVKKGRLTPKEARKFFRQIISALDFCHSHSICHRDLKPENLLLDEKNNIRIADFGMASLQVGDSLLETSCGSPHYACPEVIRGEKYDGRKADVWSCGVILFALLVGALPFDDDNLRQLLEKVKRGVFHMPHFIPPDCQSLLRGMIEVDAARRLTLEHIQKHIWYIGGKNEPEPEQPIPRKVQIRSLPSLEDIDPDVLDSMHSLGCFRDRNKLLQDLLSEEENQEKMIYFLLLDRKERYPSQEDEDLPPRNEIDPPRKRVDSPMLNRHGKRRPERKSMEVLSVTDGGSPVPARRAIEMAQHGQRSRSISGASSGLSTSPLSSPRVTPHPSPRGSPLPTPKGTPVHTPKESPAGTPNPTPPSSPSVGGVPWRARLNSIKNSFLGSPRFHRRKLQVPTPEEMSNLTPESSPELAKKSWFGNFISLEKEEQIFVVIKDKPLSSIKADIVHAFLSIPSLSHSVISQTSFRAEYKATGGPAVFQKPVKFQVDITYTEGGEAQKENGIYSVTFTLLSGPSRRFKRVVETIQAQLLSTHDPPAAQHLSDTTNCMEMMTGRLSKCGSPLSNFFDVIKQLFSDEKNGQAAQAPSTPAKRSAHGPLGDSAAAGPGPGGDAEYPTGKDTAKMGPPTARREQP
# Source text: as §1, §2, §3, §4
# [6] = target: T6, HIPK2 (Homo sapiens, UniProt Q9H2X6); assay: HIPK2 protein kinase assay; format: biochemical; conditions: for remaining activity at 1 µM: 1 μM compound; for remaining activity at 10 µM: 10 μM compound; for residual kinase activity HIPK2: 1 μm compound
# T6 construct: All protein kinases were of human origin and encoded full length proteins, unless indicated otherwise; made in house
# Source text: as §1, §2, §3, §4
# [7] = target: T7, PIM2 (Homo sapiens, UniProt Q9P1W9); assay: PIM2 protein kinase assay; format: biochemical; conditions: for remaining activity at 1 µM: 1 μM compound; for remaining activity at 10 µM: 10 μM compound; for residual kinase activity PIM2: 1 μm compound
# T7 construct: All protein kinases were of human origin and encoded full length proteins, unless indicated otherwise; made in house
# Source text: as §1, §2, §3, §4
# [8] = target: T8, GSK3b (Homo sapiens, UniProt P49841); assay: GSK3b protein kinase assay; format: biochemical; conditions: for remaining activity at 1 µM: 1 μM compound; for remaining activity at 10 µM: 10 μM compound; for residual kinase activity GSK3b: 1 μm compound
# T8 construct: All protein kinases were of human origin and encoded full length proteins, unless indicated otherwise; made in house
# Source text: as §1, §2, §3, §4
# [9] = test system: PHK; assay: PHK protein kinase assay; format: biochemical, human; conditions: for residual kinase activity: PHK
# Source text: as §1, §2, §3, §4
# [10] = target: T9, MELK (Homo sapiens, UniProt Q14680); assay: MELK protein kinase assay; format: biochemical; conditions: for remaining activity at 1 µM: 1 μM compound; for remaining activity at 10 µM: 10 μM compound; for residual kinase activity MELK: 1 μm compound
# T9 construct: All protein kinases were of human origin and encoded full length proteins, unless indicated otherwise; made in house
# Source text: as §1, §2, §3, §4
# [11] = Src, read-out: residual kinase activity
# [12] = MST4, read-out: residual kinase activity
# [13] = CSK, read-out: residual kinase activity
# [14] = JNK2, read-out: residual kinase activity
# [15] = BRSK2, read-out: residual kinase activity
# [16] = HIPK2, read-out: residual kinase activity
# [17] = PIM2, read-out: residual kinase activity
# [18] = GSK3b, read-out: residual kinase activity
# [19] = MELK, read-out: residual kinase activity
# [20] = read-out: residual kinase activity Src
# [21] = read-out: residual kinase activity MST4
# [22] = read-out: residual kinase activity CSK
# [23] = read-out: residual kinase activity JNK2
# [24] = read-out: residual kinase activity BRSK2
# [25] = read-out: residual kinase activity HIPK2
# [26] = read-out: residual kinase activity PIM2
# [27] = read-out: residual kinase activity GSK3b
# [28] = read-out: residual kinase activity MELK
# T4 sequence (P45984 whole entry): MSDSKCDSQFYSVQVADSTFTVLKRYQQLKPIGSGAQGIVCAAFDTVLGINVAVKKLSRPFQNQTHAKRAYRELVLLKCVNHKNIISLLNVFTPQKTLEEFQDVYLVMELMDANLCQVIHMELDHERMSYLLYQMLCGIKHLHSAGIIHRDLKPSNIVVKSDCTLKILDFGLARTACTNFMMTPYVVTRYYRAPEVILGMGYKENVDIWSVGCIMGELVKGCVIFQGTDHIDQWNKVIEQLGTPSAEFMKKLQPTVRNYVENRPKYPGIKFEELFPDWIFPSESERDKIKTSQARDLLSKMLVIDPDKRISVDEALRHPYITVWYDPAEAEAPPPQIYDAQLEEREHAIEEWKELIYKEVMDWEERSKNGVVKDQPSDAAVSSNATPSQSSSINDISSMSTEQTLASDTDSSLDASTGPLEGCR
# T6 sequence (Q9H2X6 165-564 limits assumed): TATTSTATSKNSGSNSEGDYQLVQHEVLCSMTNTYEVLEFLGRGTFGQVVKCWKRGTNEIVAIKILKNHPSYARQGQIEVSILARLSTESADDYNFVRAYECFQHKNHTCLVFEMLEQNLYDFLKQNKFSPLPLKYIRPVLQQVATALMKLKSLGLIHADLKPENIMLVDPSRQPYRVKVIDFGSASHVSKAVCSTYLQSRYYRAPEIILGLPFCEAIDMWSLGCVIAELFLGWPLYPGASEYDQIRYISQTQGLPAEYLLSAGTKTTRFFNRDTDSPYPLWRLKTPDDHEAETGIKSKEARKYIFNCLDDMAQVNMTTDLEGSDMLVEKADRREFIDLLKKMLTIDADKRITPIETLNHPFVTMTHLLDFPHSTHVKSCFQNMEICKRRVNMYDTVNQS
# T7 sequence (Q9P1W9 whole entry): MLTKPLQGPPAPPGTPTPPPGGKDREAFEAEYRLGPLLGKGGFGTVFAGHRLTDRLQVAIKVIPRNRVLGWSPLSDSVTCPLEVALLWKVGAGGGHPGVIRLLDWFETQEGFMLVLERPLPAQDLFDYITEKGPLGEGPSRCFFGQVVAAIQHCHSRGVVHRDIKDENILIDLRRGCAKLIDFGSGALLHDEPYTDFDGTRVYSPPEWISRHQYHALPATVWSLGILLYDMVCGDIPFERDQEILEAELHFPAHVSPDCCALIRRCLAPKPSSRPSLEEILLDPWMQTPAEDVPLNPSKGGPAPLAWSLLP
# T8 sequence (P49841 whole entry): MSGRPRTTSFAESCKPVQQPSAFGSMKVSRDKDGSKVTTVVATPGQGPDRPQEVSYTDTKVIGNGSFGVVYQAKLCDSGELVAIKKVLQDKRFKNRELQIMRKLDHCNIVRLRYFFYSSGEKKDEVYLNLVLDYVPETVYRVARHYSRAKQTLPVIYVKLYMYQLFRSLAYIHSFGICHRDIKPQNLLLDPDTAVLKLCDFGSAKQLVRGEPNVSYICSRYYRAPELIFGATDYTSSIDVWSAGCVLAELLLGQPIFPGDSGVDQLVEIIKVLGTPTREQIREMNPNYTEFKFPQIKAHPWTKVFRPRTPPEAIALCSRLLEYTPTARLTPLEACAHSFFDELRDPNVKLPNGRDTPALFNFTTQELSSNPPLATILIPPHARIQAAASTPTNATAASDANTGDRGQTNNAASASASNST
# T2 sequence (Q9P289 whole entry): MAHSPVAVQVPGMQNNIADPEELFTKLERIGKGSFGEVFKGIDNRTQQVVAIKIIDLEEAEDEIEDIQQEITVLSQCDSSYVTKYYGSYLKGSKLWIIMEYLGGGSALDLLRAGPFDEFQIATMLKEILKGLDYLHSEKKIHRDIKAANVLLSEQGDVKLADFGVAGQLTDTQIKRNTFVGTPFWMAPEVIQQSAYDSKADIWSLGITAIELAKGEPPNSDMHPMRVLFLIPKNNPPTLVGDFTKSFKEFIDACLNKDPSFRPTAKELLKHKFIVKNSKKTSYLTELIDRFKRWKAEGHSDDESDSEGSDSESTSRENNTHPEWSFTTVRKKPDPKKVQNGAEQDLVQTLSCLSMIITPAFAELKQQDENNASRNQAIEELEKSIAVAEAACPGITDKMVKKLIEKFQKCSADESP
# T1 sequence (P12931 whole entry): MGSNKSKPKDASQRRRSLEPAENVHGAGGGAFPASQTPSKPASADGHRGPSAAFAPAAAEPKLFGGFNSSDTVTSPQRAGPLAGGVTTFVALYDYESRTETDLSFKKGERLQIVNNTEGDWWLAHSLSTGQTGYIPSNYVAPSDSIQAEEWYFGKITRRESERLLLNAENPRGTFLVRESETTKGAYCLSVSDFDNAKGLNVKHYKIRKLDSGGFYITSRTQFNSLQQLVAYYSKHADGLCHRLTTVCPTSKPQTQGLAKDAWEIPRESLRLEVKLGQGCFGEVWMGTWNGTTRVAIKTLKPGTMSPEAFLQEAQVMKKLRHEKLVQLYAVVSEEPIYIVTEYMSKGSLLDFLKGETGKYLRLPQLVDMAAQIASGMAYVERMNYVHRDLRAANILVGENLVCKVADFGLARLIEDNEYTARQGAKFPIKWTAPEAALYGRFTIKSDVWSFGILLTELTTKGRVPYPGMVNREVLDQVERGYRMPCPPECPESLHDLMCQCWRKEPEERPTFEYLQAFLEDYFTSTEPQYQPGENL
# T3 sequence (P41240 whole entry): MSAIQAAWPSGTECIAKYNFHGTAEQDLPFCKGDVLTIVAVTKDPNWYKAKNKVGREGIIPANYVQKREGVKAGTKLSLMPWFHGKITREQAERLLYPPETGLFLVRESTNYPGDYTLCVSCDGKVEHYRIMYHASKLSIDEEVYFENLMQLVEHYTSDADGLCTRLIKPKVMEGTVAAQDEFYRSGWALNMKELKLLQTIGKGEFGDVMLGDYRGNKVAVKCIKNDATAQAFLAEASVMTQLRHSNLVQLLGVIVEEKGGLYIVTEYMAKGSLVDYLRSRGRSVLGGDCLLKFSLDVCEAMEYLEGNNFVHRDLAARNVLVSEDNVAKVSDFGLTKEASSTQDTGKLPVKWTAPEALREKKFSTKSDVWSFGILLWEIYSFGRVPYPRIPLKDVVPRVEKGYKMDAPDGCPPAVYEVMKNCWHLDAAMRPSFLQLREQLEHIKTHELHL
# T9 sequence (Q14680 whole entry): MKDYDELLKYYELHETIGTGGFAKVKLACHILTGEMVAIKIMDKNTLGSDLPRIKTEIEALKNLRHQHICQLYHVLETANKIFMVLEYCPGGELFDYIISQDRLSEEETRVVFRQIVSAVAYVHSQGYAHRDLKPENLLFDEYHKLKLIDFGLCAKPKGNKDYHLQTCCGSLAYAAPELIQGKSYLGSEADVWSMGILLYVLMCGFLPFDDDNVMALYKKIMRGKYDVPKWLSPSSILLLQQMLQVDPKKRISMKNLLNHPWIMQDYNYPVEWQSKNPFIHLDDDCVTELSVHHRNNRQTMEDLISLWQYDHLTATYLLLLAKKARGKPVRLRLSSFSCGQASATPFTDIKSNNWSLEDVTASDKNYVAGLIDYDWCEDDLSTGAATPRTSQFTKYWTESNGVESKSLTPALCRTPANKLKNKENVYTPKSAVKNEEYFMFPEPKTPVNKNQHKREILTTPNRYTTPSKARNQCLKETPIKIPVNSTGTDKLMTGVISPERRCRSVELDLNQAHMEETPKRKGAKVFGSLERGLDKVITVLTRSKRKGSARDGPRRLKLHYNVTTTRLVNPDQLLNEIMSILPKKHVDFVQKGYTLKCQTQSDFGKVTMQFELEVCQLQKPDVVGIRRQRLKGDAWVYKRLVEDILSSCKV
SMILES,"remaining activity at 1 µM [1, 11]","remaining activity at 10 µM [1, 11]","remaining activity at 1 µM [2, 12]","remaining activity at 10 µM [2, 12]","remaining activity at 1 µM [3, 13]","remaining activity at 10 µM [3, 13]","remaining activity at 1 µM [4, 14]","remaining activity at 10 µM [4, 14]","remaining activity at 1 µM [5, 15]","remaining activity at 10 µM [5, 15]","remaining activity at 1 µM [6, 16]","remaining activity at 10 µM [6, 16]","remaining activity at 1 µM [7, 17]","remaining activity at 10 µM [7, 17]","remaining activity at 1 µM [8, 18]","remaining activity at 10 µM [8, 18]",residual kinase activity ([9]; 1 μM compound),residual kinase activity ([9]; 10 μM compound),"remaining activity at 1 µM [10, 19]","remaining activity at 10 µM [10, 19]",further results
"O=C(NCCCNc1nc(Nc2cccnc2)ncc1C1CC1)c1cccs1 [Example 50, Thiophene-2-carboxylic acid {3-[5-cyclopropyl-2-(pyridin-3-ylamino)-pyrimidin-4-ylamino]-propyl}-amide]",84%,50%,164%,120%,79%,60%,102%,66%,87%,42%,83%,54%,100%,89%,52%,19%,64%,15%,29%,17%,
"O=C(NCCCNc1nc(Nc2cccc(F)c2)ncc1Br)C1CCC1 [Compound A, cyclobutanecarboxylic acid {3-[5-bromo-2-(3-fluoro-phenylamino)-pyrimidin-4-ylamino]-propyl}-amide, reference compound]",,,,,,,,,,,,,,,,,,,,,"remaining activity at 10 µM [1, 20]: 12%; residual kinase activity Src [1]: 53%; remaining activity at 10 µM [2, 21]: 47%; residual kinase activity MST4 [2]: 90%; remaining activity at 10 µM [3, 22]: 51%; residual kinase activity CSK [3]: 86%; remaining activity at 10 µM [4, 23]: 5%; residual kinase activity JNK2 [4]: 40%; remaining activity at 10 µM [5, 24]: 6%; residual kinase activity BRSK2 [5]: 23%; remaining activity at 10 µM [6, 25]: 12%; residual kinase activity HIPK2 [6]: 58%; remaining activity at 10 µM [7, 26]: 75%; residual kinase activity PIM2 [7]: 90%; remaining activity at 10 µM [8, 27]: 4%; residual kinase activity GSK3b [8]: 23%; residual kinase activity PHK ([9]; 10 μM compound): 0%; residual kinase activity PHK ([9]; 1 μm compound): 7%; remaining activity at 10 µM [10, 28]: 14%; residual kinase activity MELK [10]: 15%"
"O=C(NCCCNc1nc(Nc2cccc(F)c2)ncc1C1CC1)C1CCC1 [Example 23, Cyclobutanecarboxylic acid {3-[5-cyclopropyl-2-(3-fluoro-phenylamino)-pyrimidin-4-ylamino]-propyl}-amide]",77%,50%,94%,56%,77%,69%,78%,55%,64%,26%,59%,26%,74%,67%,53%,20%,28%,3%,23%,3%,"remaining activity at 10 µM [1, 20]: 50%; residual kinase activity Src [1]: 77%; remaining activity at 10 µM [2, 21]: 56%; residual kinase activity MST4 [2]: 94%; remaining activity at 10 µM [3, 22]: 69%; residual kinase activity CSK [3]: 77%; remaining activity at 10 µM [4, 23]: 55%; residual kinase activity JNK2 [4]: 78%; remaining activity at 10 µM [5, 24]: 26%; residual kinase activity BRSK2 [5]: 64%; remaining activity at 10 µM [6, 25]: 26%; residual kinase activity HIPK2 [6]: 59%; remaining activity at 10 µM [7, 26]: 67%; residual kinase activity PIM2 [7]: 74%; remaining activity at 10 µM [8, 27]: 20%; residual kinase activity GSK3b [8]: 53%; residual kinase activity PHK ([9]; 10 μM compound): 3%; residual kinase activity PHK ([9]; 1 μm compound): 28%; remaining activity at 10 µM [10, 28]: 3%; residual kinase activity MELK [10]: 23%"
